Source: US20110269758A1, “NAPHTHYRIDINONES AS PROTEIN KINASE INHIBITORS” (MERCK PATENT GMBH, priority 2008, published 2011)
Where two headings read alike, the source gives them in different places.

Biological target: T1, Aurora Kinase A (Homo sapiens, UniProt O14965)
T1 construct: full length Aurora A (1-403 amino acids); purchased Carna Biosciences 05-101
T1 sequence (O14965 1-403): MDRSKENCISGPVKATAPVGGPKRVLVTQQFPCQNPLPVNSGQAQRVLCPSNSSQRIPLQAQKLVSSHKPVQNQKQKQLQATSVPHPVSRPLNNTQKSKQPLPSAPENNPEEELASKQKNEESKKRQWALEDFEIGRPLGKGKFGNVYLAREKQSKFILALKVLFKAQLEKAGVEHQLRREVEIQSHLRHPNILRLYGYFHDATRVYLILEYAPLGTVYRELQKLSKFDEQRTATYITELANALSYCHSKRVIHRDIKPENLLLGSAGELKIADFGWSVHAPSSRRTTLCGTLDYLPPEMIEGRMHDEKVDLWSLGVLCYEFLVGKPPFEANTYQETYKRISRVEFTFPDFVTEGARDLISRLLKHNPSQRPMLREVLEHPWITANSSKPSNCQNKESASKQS
Experiment: Biochemical enzyme assay for Aurora A activity (Caliper LC3000 / Desktop Profiler mobility shift)
Method: The Aurora assays described here were performed on two Caliper Life Sciences systems, the LC3000 and the Desktop Profiler. These provide data on enzyme activity via measurement of the relative amounts of phosphorylated or unphosphorylated fluorescently labelled substrate peptide at the end of an enzymatic reaction. These different states of peptide are resolved by applying a potential difference across the sample. The presence of a charged phosphate group on the product (as opposed to the substrate) causes a different peptide mobility between the two peptides. This is visualized by excitation of a fluorescent label on the substrate and product peptides and represented as peaks within the analysis software.
In order to measure inhibitor activity of Aurora A inhibitors in the Caliper Life Sciences LC3000, a TTP Mosquito liquid handling instrument was used to place 0.25 μl of an appropriate concentration of inhibitor in 100% DMSO (for a dose response curve calculation) into each well of a 384-well plate.
The reaction was incubated for 90 min at 25° C., and then stopped by the addition of 70 μl of Stop buffer (100 mM HEPES pH 7.5, 0.015% Brij-35, 10 mM EDTA (Sigma, E7889)).
The plate was read on a Caliper LC 3000 in an Off-Chip mobility shift assay format, using the following parameters for a 12-sipper chip: screening pressure −1.8 psi, upstream voltage −2700, downstream voltage −1000. These conditions cause unphosphorylated substrate and phosphorylated product peptide to resolve as separate peaks allowing direct measurement of percentage of conversion of substrate to product.
The Desktop Profiler utilizes the same prinicipal as the LC 3000 for calculating percentage conversion of a substrate to product. Caliper Life Sciences provided proprietary flash frozen pre-made 384 well plates containing selected kinases. Each column in the 384 well plate contained a particular selected kinase. A second plate, the ‘substrate plate’ contained a mix of fluorescently labeled peptide substrate and ATP. These were arranged in columns so that transfer for substrate plate to enzyme plate provided the correct enzyme with the correct substrate/ATP concentration.
Compounds were added to a thawed enzyme plate in the desired format, in single concentrations. Reactions were initiated by transfer of the substrate/ATP mix from the substrate plate. The enzyme plate was incubated for 90 mins at 25° C. The reaction was stopped by addition of 70 μl of Stop Buffer (100 mM HEPES pH 7.5, 0.015% Brij-35, 10 mM EDTA (Sigma, E7889)).
Plates were read in a manner identical to that of the LC3000, and the ratio between substrate and product peaks provided the activity of the enzyme in that well.

[1] = GST-Aurora A, 15 μM ATP, 90 min at 25° C., LC3000 or Desktop Profiler, read-out: Aurora Kinase A IC50

Q: `CN(C)CCNC(=O)c1c(-c2ccccc2)c2c(Nc3ccc(NC(=O)c4ccc(F)c(F)c4)cc3)ccnc2[nH]c1=O` [Compound 77, 5-[(3,4-Difluoro-benzoylamino)-phenylamino]-2-oxo-4-phenyl-1,2-dihydro-1,8-naphthyridine-3-carboxylic acid (2-dimethylamino-ethyl)-amide] was tested. Which IC50 [1] did it give?
A: The IC50 was over 1000 nM.

Q: With `Nc1ccc(NC(=O)c2ccc(F)cc2F)cc1` [Compound 12, N-(4-Aminophenyl)-2,4-difluoro-benzamide] as the compound, how does the IC50 [1] read?
A: Its IC50 is 1 to 300 nM.

Q: `Nc1ccc(NC(=O)c2ccc(F)c(F)c2)cc1` [Compound 10, N-(4-Aminophenyl)-3,4-difluoro-benzamide] was tested. Which IC50 [1] did it give?
A: Its IC50 is 301 to 600 nM.

Q: For `O=C(Nc1ccc(Nc2ccnc3[nH]c(=O)ccc23)cc1)c1ccccc1F` [Compound 34, 2-Fluoro-N-(4-(7-oxo-7,8-dihydro-1,8-naphthyridin-4-yl-amino)phenyl)benzamide], which IC50 [1] is on record?
A: Its IC50 is 1 to 300 nM.

Q: With `O=C(Nc1ccc(Nc2ccnc3[nH]c(=O)ccc23)cc1)c1ccccc1` [Compound 32, N-(4-(7-oxo-7,8-dihydro-1,8-naphthyridin-4-yl-amino)phenyl)benzamide] as the compound, how does the IC50 [1] read?
A: The IC50 was 1 to 300 nM.

Q: `CN(C)C1CCN(c2ccc3c(Nc4ccc(C(=O)Nc5ccccc5)cc4)ccnc3n2)CC1` [Compound 64] was tested. Which IC50 [1] did it give?
A: Its IC50 is 1 to 300 nM.

Q: For `O=c1ccc2c(Cl)ccnc2[nH]1` [Compound 31, 5-Chloro-1,8-naphthyridi-2(1H)-one], which IC50 [1] is on record?
A: The IC50 was 1 to 300 nM.

Q: For `O=C(Nc1ccccc1Nc1ccnc2[nH]c(=O)ccc12)c1ccccc1` [Compound 47, N-(2-(7-oxo-7,8-dihydro-1,8-naphthyridin-4-ylamino)phenyl)benzamide], which IC50 [1] is on record?
A: The IC50 was 1 to 300 nM.

Q: With `CN(C)CCCOc1ccc2c(Nc3ccc(C(=O)Nc4ccccc4)cc3)ccnc2n1` [Compound 69, N-(4-(7-(4-Dimethylamino-propoxy)-1,8-naphthyridin-4-yl-amino)phenyl)benzamide] as the compound, how does the IC50 [1] read?
A: Its IC50 is over 1000 nM.

Q: How did the IC50 [1] turn out when `O=C(Nc1ccc(Nc2ccnc3[nH]c(=O)ccc23)cc1)c1ccc(F)c(F)c1` [Compound 42, 3,4-Difluoro-N-(4-(7-oxo-7,8-dihydro-1,8-naphthyridin-4-yl-amino)phenyl)benzamide] was run?
A: The IC50 was 1 to 300 nM.

Q: How did the IC50 [1] turn out when `CC(C)(C)C(=O)Nc1nccc(Cl)c1C=O` [Compound 29, N-(4-chloro-3-formylpyridin-2-yl)-2,2-dimethylpropanamide] was run?
A: Its IC50 is 301 to 600 nM.

Q: Which IC50 [1] does the source give for `O=C(Nc1ccc(Nc2ccnc3[nH]c(=O)c(C(=O)NC[C@H](O)CO)c(-c4ccccc4)c23)cc1)c1ccc(F)c(F)c1` [Compound 79, 5-[(3,4-Difluoro-benzoylamino)-phenylamino]-2-oxo-4-phenyl-1,2-dihydro-1,8-naphthyridine-3-carboxylic acid ((S)2,3-dihydroxypropyl)-amide] here?
A: Its IC50 is over 1000 nM.

Q: `O=C(Nc1ccc(Nc2ncnc3[nH]c(=O)c(C(=O)O)cc23)cc1)c1ccccc1` [Compound 85, 4-(4-Benzoylamino-phenylamino)-7-oxo-7,8-dihydro-pyrido[2,3-d]pyrimidine-6-carboxylic acid] was tested. Which IC50 [1] did it give?
A: The IC50 was over 1000 nM.

Q: `O=C(Nc1ccc(Nc2ccnc3[nH]c(=O)c(C(=O)NCCO)c(-c4ccccc4)c23)cc1)c1ccc(F)c(F)c1` [Compound 78, 5-[(3,4-Difluoro-benzoylamino)-phenylamino]-2-oxo-4-phenyl-1,2-dihydro-1,8-naphthyridine-3-carboxylic acid (2-hydroxy-ethyl)-amide] was tested. Which IC50 [1] did it give?
A: Its IC50 is 1 to 300 nM.

Q: Which IC50 [1] does the source give for `COC(=O)c1cc2c(Nc3ccc(NC(=O)c4ccccc4)cc3)ncnc2[nH]c1=O` [Compound 84, 4-(4-Benzoylamino-phenylamino)-7-oxo-7,8-dihydro-pyrido[2,3-d]pyrimidine-6-carboxylic acid methyl ester] here?
A: Its IC50 is over 1000 nM.

Q: Which IC50 [1] does the source give for `Nc1ccc(NC(=O)c2cc(F)cc(C(F)(F)F)c2)cc1` [Compound 19, N-(4-Aminophenyl)-3-fluoro-5-trifluoromethyl-benzamide] here?
A: Its IC50 is 1 to 300 nM.

Q: Which IC50 [1] does the source give for `Nc1ncnc(Nc2ccc(NC(=O)c3ccccc3)cc2)c1C=O` [Compound 83, N-[4-(6-Amino-5-formyl-pyrimidin-4-ylamino)-phenyl]-benzamide] here?
A: Its IC50 is over 1000 nM.

Q: Which IC50 [1] does the source give for `Nc1ccc(NC(=O)c2cccc3ccccc23)cc1` [Compound 24, Naphthalene-1-carboxylic acid (4-aminophenyl)-amide] here?
A: The IC50 was over 1000 nM.

Q: How did the IC50 [1] turn out when `O=C(Nc1ccc(Nc2ccnc3nc(Cl)ccc23)cc1)c1ccccc1` [Compound 63, N-(4-(7-Chloro-1,8-naphthyridin-4-yl-amino)phenyl)benzamide] was run?
A: Its IC50 is 1 to 300 nM.

Q: Which IC50 [1] does the source give for `Nc1ccc(NC(=O)c2cc(F)cc(F)c2)cc1` [Compound 11, N-(4-Aminophenyl)-3,5-difluoro-benzamide] here?
A: The IC50 was 1 to 300 nM.

Q: `Nc1ccc(NC(=O)c2cccc(C(F)(F)F)c2F)cc1` [Compound 7, N-(4-Aminophenyl)-2-fluoro-3-trifluoromethyl-benzamide] was tested. Which IC50 [1] did it give?
A: Its IC50 is 1 to 300 nM.

Q: How did the IC50 [1] turn out when `Nc1ccc(NC(=O)C2CCCCC2)cc1` [Compound 13, Cyclohexanecarboxylic acid (4-aminophenyl)-amide] was run?
A: The IC50 was 1 to 300 nM.

Q: `CC(C)(C)C(=O)Nc1cc(Cl)ccn1` [Compound 28, N-(4-chloropyridin-2-yl)-2,2-dimethylpropanamide] was tested. Which IC50 [1] did it give?
A: Its IC50 is 1 to 300 nM.

Q: With `COc1ccccc1C(=O)Nc1ccc(N)cc1` [Compound 16, N-(4-Aminophenyl)-2-methoxy-benzamide] as the compound, how does the IC50 read?
A: Its IC50 is 1 to 300 nM.

Q: How did the IC50 [1] turn out when `Cc1cccc(C(=O)Nc2ccc(N)cc2)c1` [Compound 23, N-(4-Aminophenyl)-3-methyl-benzamide] was run?
A: The IC50 was over 1000 nM.

Q: Which IC50 [1] does the source give for `Nc1ccc(NC(=O)c2ccc(Cl)cc2Cl)cc1` [Compound 27, N-(4-Aminophenyl)-2,4-dichloro-benzamide] here?
A: The IC50 was 1 to 300 nM.

Q: For `O=c1ccc2c(Nc3c(Cl)ccc4c3OCO4)ccnc2[nH]1` [Compound 31a, 5-(5-chlorobenzo[d][1,3]dioxo-4-ylamino)-1,8-naphthyridin-2(1H)-one], which IC50 [1] is on record?
A: The IC50 was 1 to 300 nM.

Q: `CC(C)(C)OC(=O)CC(O)c1c(Cl)ccnc1NC(=O)C(C)(C)C` (stereo not shown) [Compound 30, Tert-butyl 3-{4-chloro-2-[(2,2-dimethylpropanoyl)amino]pyridin-3-yl}-3-hydroxypropanoate] was tested. Which IC50 [1] did it give?
A: Its IC50 is 1 to 300 nM.

Q: For `O=C(Nc1ccc(Nc2ccnc3[nH]c(=O)ccc23)cc1)c1ccc(F)cc1F` [Compound 44, 2,4-Difluoro-N-(4-(7-oxo-7,8-dihydro-1,8-naphthyridin-4-yl-amino)phenyl)benzamide], which IC50 [1] is on record?
A: The IC50 was 301 to 600 nM.

Q: Which IC50 [1] does the source give for `O=C(Nc1ccc(Nc2ccnc3[nH]c(=O)c([N+](=O)[O-])cc23)cc1)c1ccc(F)c(F)c1` [Compound 87, 3,4-Difluoro-N-(4-(6-nitro-7-oxo-7,8-dihydro-1,8-naphthyridin-4-ylamino)phenyl)benzamide] here?
A: The IC50 was 1 to 300 nM.

Q: For `O=C(Nc1ccc(Nc2ccnc3[nH]c(=O)ccc23)cc1)c1cc(C(F)(F)F)cc(C(F)(F)F)c1` [Compound 49, 3,5-Bis(trifluoromethyl)-N-(4-(7-oxo-7,8-dihydro-1,8-naphthyridin-4-yl-amino)phenyl)benzamide], which IC50 [1] is on record?
A: The IC50 was over 1000 nM.

Q: For `Nc1nccc(Cl)c1C(=O)c1ccccc1` [Compound 74, (2-Amino-4-chloro-pyridin-3-yl)-phenyl-methanone], which IC50 [1] is on record?
A: Its IC50 is 1 to 300 nM.

Q: For `Nc1ccc(NC(=O)c2cc(C(F)(F)F)cc(C(F)(F)F)c2)cc1` [Compound 14, N-(4-Aminophenyl)-3,5-bis-trifluoromethyl-benzamide], which IC50 [1] is on record?
A: The IC50 was 1 to 300 nM.

Q: How did the IC50 [1] turn out when `Nc1ccc(NC(=O)c2ccc(Cl)cc2)cc1` [Compound 20, N-(4-Aminophenyl)-4-chloro-benzamide] was run?
A: The IC50 was 1 to 300 nM.

Q: For `Nc1ccc(NC(=O)c2ccc3ccccc3c2)cc1` [Compound 15, Naphthalene-2-carboxylic acid (4-aminophenyl)-amide], which IC50 [1] is on record?
A: The IC50 was 1 to 300 nM.

Q: With `O=C(Nc1ccccc1)c1ccc(Nc2ccnc3[nH]c(=O)ccc23)cc1` [Compound 48, 4-(7-Oxo-7,8-dihydro-1,8-naphthyridin-4-ylamino)-N-phenyl-benzamide] as the compound, how does the IC50 [1] read?
A: The IC50 was over 1000 nM.

Q: Which IC50 [1] does the source give for `O=C(Nc1ccc(Nc2ccnc3[nH]c(=O)ccc23)cc1)c1ccc(OC(F)(F)F)cc1` [Compound 56, 4-Trifluoromethoxy-N-(4-(7-oxo-7,8-dihydro-1,8-naphthyridin-4-yl-amino)phenyl)benzamide] here?
A: The IC50 was 601 to 1000 nM.
